# Publication PMC10210398, “Genomic, functional and structural analyses elucidate evolutionary innovation within the sea anemone 8 toxin family” (BMC Biology, 2023)
# “Also recorded” adds a separate entry of the source. Bridge positions count the residues as written; N and C are the ends. Ends that are not written are not given here.
# Legend:
# hKV1.1 = format: cell-based, human
# Method: (§1) CHO and human embryonic kidney (HEK 293) cells were grown in DMEM-high glucose supplemented with 10% FBS, 2 mM L-glutamine, 100 U/mL penicillin-g, and 100 μg/mL streptomycin (Invitrogen) at 37 °C in a 5% CO2 and 95% air humidified atmosphere. Cells were passaged twice per week following a 5-min incubation in PBS containing 0.2 g/L EDTA (Invitrogen, Carlsbad, CA).
# (§2) CHO cells (ATCC) were transiently transfected with plasmids encoding hKV1.1, hKV1.2, hKV10.1, hKCa3.1, hTRPA1, or hNaV1.7 using Lipofectamine 2000 (Invitrogen, Carlsbad, CA) following the manufacturer’s protocol, then cultured under standard conditions. The cells were co-transfected with a plasmid encoding green fluorescent protein (GFP) at a molar ratio of 10:1 except for hKV1.1, hKV1.2, and hKCa3.1 for which GFP-tagged ion channel vectors were used. Currents were recorded 24–36 h after transfection. […] HEK 293 cells stably expressing the hKv11.1 channel (hERG, hKCNH2 gene, a kind gift from H. Wulff, University of California, Davis, CA) and mKCa1.1 channel (BKCa, hKCNMA1, a kind gift from C. Beeton, Baylor College of Medicine, Houston, TX) were used. hTRPV1 channels were expressed in a stable manner in CHO cells. Transfected cells were washed twice with 2 mL of ECS (see below) and re-plated onto 35-mm polystyrene cell culture dishes (Cellstar, Greiner Bio-One). hKV1.3 currents were recorded from activated peripheral blood mononuclear cells (PBMCs, see below) 3–4 days after activation. Human veinous blood was obtained from anonymised healthy donors. […]
# (§3) Conventional whole-cell patch-clamp electrophysiology was used to record ionic currents. […] Data were analysed using Prism 8 (GraphPad, CA, USA) and ClampFit 10.5 software (Molecular Devices Inc., Sunnyvale, CA). […] For hKCa3.1, hTRPA1 and hTRPV1, the reversal potential for K^+ was determined and only those currents were analysed for which the reversal potential fell into the range of the theoretical reversal potential ± 5 mV (− 86.5 ± 5 mV for KCa3.1, and 0 ± 5 mV for hTRPA1 and hTRPV1).
# hTRPV1 = experiment: Whole-cell patch-clamp, hTRPV1 stably expressed in CHO cells; format: cell-based, human
# Method: as §1
# (§4) CHO cells (ATCC) were transiently transfected with plasmids encoding hKV1.1, hKV1.2, hKV10.1, hKCa3.1, hTRPA1, or hNaV1.7 using Lipofectamine 2000 (Invitrogen, Carlsbad, CA) following the manufacturer’s protocol, then cultured under standard conditions. The cells were co-transfected with a plasmid encoding green fluorescent protein (GFP) at a molar ratio of 10:1 except for hKV1.1, hKV1.2, and hKCa3.1 for which GFP-tagged ion channel vectors were used. Currents were recorded 24–36 h after transfection. […] Transfected cells were washed twice with 2 mL of ECS (see below) and re-plated onto 35-mm polystyrene cell culture dishes (Cellstar, Greiner Bio-One). hKV1.3 currents were recorded from activated peripheral blood mononuclear cells (PBMCs, see below) 3–4 days after activation. […]
# (§5) Conventional whole-cell patch-clamp electrophysiology was used to record ionic currents. […] Data were analysed using Prism 8 (GraphPad, CA, USA) and ClampFit 10.5 software (Molecular Devices Inc., Sunnyvale, CA). […]
# hTRPA1 = experiment: Whole-cell patch-clamp, hTRPA1 in transiently transfected CHO cells; format: cell-based, human
# Method: as §1, §4, §5
# hKV1.3 = format: cell-based, human
# Method: as §2, with “donors. PBMCs were isolated using Histopaque1077 (Sigma-Aldrich Hungary, Budapest, Hungary) density gradient centrifugation. Cells obtained were resuspended in RPMI 1640 medium containing 10% foetal calf serum (Sigma-Aldrich Hungary, Budapest, Hungary), 100 μg/mL penicillin, 100 μg/mL streptomycin, and 2 mM L-glutamine, seeded in a 24-well culture plate at a density of 5–6 × 10^5 cells/mL, and grown in a 5% CO2 incubator at 37 °C for 3–5 days.” for “donors.”
# as §3
# hKV1.2 = biological target: T1, hKV1.2 (Homo sapiens, UniProt P16389); experiment: Whole-cell patch-clamp, hKV1.2 in transiently transfected CHO cells; format: cell-based; conditions: for RCF_mean (remaining current fraction, I/I0): mean
# T1 construct: GFP; expressed in transfected cells; host or cells: CHO cells (ATCC), transient transfection with Lipofectamine 2000
# Method: as §1
# CHO cells (ATCC) were transiently transfected with plasmids encoding hKV1.1, hKV1.2, hKV10.1, hKCa3.1, hTRPA1, or hNaV1.7 using Lipofectamine 2000 (Invitrogen, Carlsbad, CA) following the manufacturer’s protocol, then cultured under standard conditions. The cells were co-transfected with a plasmid encoding green fluorescent protein (GFP) at a molar ratio of 10:1 except for hKV1.1, hKV1.2, and hKCa3.1 for which GFP-tagged ion channel vectors were used. Currents were recorded 24–36 h after transfection. […] HEK 293 cells stably expressing the hKv11.1 channel (hERG, hKCNH2 gene, a kind gift from H. Wulff, University of California, Davis, CA) and mKCa1.1 channel (BKCa, hKCNMA1, a kind gift from C. Beeton, Baylor College of Medicine, Houston, TX) were used. hTRPV1 channels were expressed in a stable manner in CHO cells. Transfected cells were washed twice with 2 mL of ECS (see below) and re-plated onto 35-mm polystyrene cell culture dishes (Cellstar, Greiner Bio-One). hKV1.3 currents were recorded from activated peripheral blood mononuclear cells (PBMCs, see below) 3–4 days after activation. Human veinous blood was obtained from anonymised healthy donors. PBMCs were isolated using Histopaque1077 (Sigma-Aldrich Hungary, Budapest, Hungary) density gradient centrifugation. Cells obtained were resuspended in RPMI 1640 medium containing 10% foetal calf serum (Sigma-Aldrich Hungary, Budapest, Hungary), 100 μg/mL penicillin, 100 μg/mL streptomycin, and 2 mM L-glutamine, seeded in a 24-well culture plate at a density of 5–6 × 10^5 cells/mL, and grown in a 5% CO2 incubator at 37 °C for 3–5 days. Phytohemagglutinin A (PHA, Sigma-Aldrich Hungary, Budapest, Hungary) was added to the medium at 10 μg/mL to amplify the KV1.3 expression. Cells were washed gently twice with 2 mL of ECS for the patch-clamp experiments.
# Conventional whole-cell patch-clamp electrophysiology was used to record ionic currents. Micropipettes were pulled in four stages using a Flaming Brown automatic pipette puller (Sutter Instruments, San Rafael, CA) from Borosilicate Standard Wall with Filament aluminium–silicate glass (Harvard Apparatus Co., Holliston, MA) with tip diameters between 0.5 and 1 μm and heat polished to a tip resistance of 2–8 MΩ. All measurements were carried out by using Axopatch 200B amplifier connected to a personal computer using Axon Digidata 1550A data acquisition hardware (Molecular Devices, Sunnyvale, CA). In general, the holding potential was − 120 mV. Records were discarded when a leak at the holding potential was > 10% of the peak current at the test potential. Series resistance compensation up to 70% was used to minimise voltage errors and achieve proper voltage-clamp conditions. Experiments were performed at room temperature (20–24 °C). Data were analysed using Prism 8 (GraphPad, CA, USA) and ClampFit 10.5 software (Molecular Devices Inc., Sunnyvale, CA). Before analysis, whole-cell current traces were corrected for ohmic leakage and digitally filtered with a three-point boxcar smoothing filter. For hKCa3.1, hTRPA1 and hTRPV1, the reversal potential for K^+ was determined and only those currents were analysed for which the reversal potential fell into the range of the theoretical reversal potential ± 5 mV (− 86.5 ± 5 mV for KCa3.1, and 0 ± 5 mV for hTRPA1 and hTRPV1).
# T1 sequence (P16389 whole entry): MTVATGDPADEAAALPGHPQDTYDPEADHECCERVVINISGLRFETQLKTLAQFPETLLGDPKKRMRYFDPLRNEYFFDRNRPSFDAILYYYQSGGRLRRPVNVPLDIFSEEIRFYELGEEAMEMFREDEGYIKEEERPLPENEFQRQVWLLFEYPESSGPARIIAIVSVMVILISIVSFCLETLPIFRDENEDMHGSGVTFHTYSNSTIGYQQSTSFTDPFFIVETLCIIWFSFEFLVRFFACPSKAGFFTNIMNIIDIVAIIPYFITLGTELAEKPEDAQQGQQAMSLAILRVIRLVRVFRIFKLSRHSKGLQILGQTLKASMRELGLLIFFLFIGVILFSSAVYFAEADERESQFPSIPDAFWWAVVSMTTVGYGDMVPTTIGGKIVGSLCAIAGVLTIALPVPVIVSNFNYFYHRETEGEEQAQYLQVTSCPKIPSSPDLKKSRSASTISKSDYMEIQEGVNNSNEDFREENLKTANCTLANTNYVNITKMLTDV
sequence,measurement,setting,value
"GYGKGRPGCYNHYDESICGGVIKDEHCKAGRGSRMGKFALKNCQFQCGLC (disulfide 9-47, 18-50, 27-43) [SA8]","RCF_mean (remaining current fraction, I/I0)","hKV1.1; Kv1.1, 100 nM SA8, mean, n = 4, SEM 0.0202631",1.029
same,"effect on current, in words","hKV1.1; hKV1.1, CHO cells, 100 nM SA8",no effect; also recorded: did not inhibit
same,"RCF_mean (remaining current fraction, I/I0)","hTRPV1; TRPV1, 100 nM SA8, mean, n = 5, SEM 0.0111172",0.9606
same,"effect on current, in words","hTRPV1; hTRPV1, CHO cells, activated by 1 µM capsaicin, 100 nM SA8",no effect; also recorded: did not inhibit
same,"RCF_mean (remaining current fraction, I/I0)","hTRPA1; TRPA1, 100 nM SA8, mean, n = 5, SEM 0.0123957",0.9628
same,"effect on current, in words","hTRPA1; hTRPA1, CHO cells, activated by 100 µM AITC, 100 nM SA8",no effect; also recorded: did not inhibit
same,"RCF_mean (remaining current fraction, I/I0)","hKV1.3; Kv1.3, 100 nM SA8, mean, n = 3, SEM 0.00826878",1.03
same,"effect on current, in words","hKV1.3; hKV1.3, activated PBMCs, 100 nM SA8",no effect; also recorded: did not inhibit
same,association and dissociation rates,"hKV1.2; 100 nM SA8, hKV1.2",rapid
same,reversibility of block upon washing,"hKV1.2; 100 nM SA8, hKV1.2, inhibitor-free solution",almost fully reversible
same,time for development of equilibrium block and recovery,"hKV1.2; 100 nM SA8, hKV1.2, recovery up to ~ 85% of control current",~ 1 min
same,IC50,"hKV1.2; 0.01, 0.1, 1 and 10 µM SA8, linear least squares fit Y = 1 + slope × [toxin], n = 4, room temperature (20–24 °C), ECS pH 7.35, 0.1 mg/mL BSA, CHO cells",40.8 ± 4.9 µM
same,"RCF_mean (remaining current fraction, I/I0)","hKV1.2; Kv1.2, 10 nM SA8, n = 5, SEM 0.00976051",0.9869
same,"RCF_mean (remaining current fraction, I/I0)","hKV1.2; Kv1.2, 100 nM SA8, n = 4, SEM 0.0156624",0.9412
same,"RCF_mean (remaining current fraction, I/I0)","hKV1.2; Kv1.2, 1000 nM SA8, n = 4, SEM 0.0249691",0.9151
same,"RCF_mean (remaining current fraction, I/I0)","hKV1.2; Kv1.2, 10000 nM SA8, n = 6, SEM 0.0222303",0.772
same,recovery of current upon washing (of control current),"hKV1.2; after 100 nM SA8, hKV1.2, inhibitor-free solution",~ 85%
same,"effect on current, in words","hKV1.2; hKV1.2, CHO cells, 100 nM",weak block; also recorded: modest block; also recorded: weak inhibition
